Data as given in patent US9927423B2, “LRRC8 proteins and protein complexes and methods for identification of channel modulators” (MAX-DELBRUECK-CENTRUM FUER MOLEKULARE MEDIZIN, priority 2014, dated 2018).

Experiments:
VRAC [1] = molecular target: T1, VRAC (Homo sapiens, UniProt Q8IWT6); test: FLIPR YFP-quenching assay: hypotonicity-induced iodide influx into HEK cells expressing YFP(H148Q/I152L); type: cell-based; parameters: Swelling-induced iodide influx into HEK cells, which display typical ICl(swell) currents; endogenous in cells; host or cells: HEK293: a clone inducibly expressing YFP(H148Q/I152L) in A1, and HEK cells in A2; settings: hypotonic saline with 50 mM iodide, inhibitor included in the iodide-containing solution
T1 sequence (Q8IWT6 1-810): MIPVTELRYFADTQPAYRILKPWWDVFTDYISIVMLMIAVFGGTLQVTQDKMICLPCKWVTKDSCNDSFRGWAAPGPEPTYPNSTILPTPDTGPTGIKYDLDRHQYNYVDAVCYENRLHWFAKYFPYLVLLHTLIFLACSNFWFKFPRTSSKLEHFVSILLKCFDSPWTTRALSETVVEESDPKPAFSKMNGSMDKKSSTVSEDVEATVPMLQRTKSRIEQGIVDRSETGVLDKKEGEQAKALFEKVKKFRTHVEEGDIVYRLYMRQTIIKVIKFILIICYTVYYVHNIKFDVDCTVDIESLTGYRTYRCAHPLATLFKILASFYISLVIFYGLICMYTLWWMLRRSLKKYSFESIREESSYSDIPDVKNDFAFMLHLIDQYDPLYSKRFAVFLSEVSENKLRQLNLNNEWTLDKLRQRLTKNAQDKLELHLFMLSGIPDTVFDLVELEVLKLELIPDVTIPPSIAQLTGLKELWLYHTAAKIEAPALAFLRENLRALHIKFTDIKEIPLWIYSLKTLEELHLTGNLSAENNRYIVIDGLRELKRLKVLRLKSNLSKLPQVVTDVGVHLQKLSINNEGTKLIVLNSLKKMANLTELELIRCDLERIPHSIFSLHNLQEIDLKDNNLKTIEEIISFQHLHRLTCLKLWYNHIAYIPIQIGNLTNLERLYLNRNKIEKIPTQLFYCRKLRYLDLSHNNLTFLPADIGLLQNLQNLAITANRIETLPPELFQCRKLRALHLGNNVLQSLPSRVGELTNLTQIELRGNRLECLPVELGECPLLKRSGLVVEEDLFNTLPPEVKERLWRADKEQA
Text: To identify VRAC we opted for a genome-wide RNA interference screen that could identify non-redundant VRAC components even if the channel were a heteromer. Swelling-induced iodide influx into HEK cells, which display typical ICl(swell) currents (Nilius et al., 2001, Hernandez-Carballo et al.), was used as readout (FIG. 1A). We generated a clonal HEK cell line expressing a yellow fluorescent protein variant YFP(H148Q/I152L) whose fluorescence is efficiently quenched by iodide (Galietta et al.). The assay used the FLIPR™ fluorometric imaging plate reader system which allows parallel pipetting and continuous fluorescence measurements of all wells. The solution covering the cells was exchanged to a hypotonic or isotonic (control) saline containing 50 mM iodide and YFP fluorescence was followed over time (FIG. 1B). Compatible with a background permeation pathway for I^− the fluorescence decayed slowly in I^−-containing isotonic control solution. […]
The YFP-quenching assay was performed 72 h post-transfection. After having exchanged the cell culture medium in all wells of the plate with 10 μl of isotonic solution (in mM: 145 NaCl, 5 KCl, 1 MgCl2, 2 CaCl2, 10 glucose, 10 HEPES pH 7.4, 329 mOsm) in a Tecan Freedom EVO 200 workstation, the plates were transferred into the FLIPR™ (Molecular Devices) High Throughput Cellular Screening Device and fluorescence measurements were initiated. […]

Ras-transformed cells = Ras-transformed cells compared to WT cells; cited from earlier work
VRAC [2] = molecular target: T1, VRAC; parameters: host or cells: human epidermis cancer cells; settings: human epidermis cancer cells; cited from earlier work

Row | SMILES | inhibition of hypotonicity-induced decrease in YFP fluorescence (quenching by iodide) (VRAC [1]) | further results
1 | CCCCC1(C2CCCC2)Cc2cc(OCCCC(=O)O)c(Cl)c(Cl)c2C1=O (stereo not shown) [DCPIB] | partially inhibited | 
2 | O=C(Nc1cc(C(F)(F)F)cc(C(F)(F)F)c1)Nc1ccc(Br)cc1-c1nnn[nH]1 [NS3728] |  | inhibition of cell migration (Ras-transformed cells): inhibit cell migration more strongly in Ras-transformed cells compared to WT cells
3 | CC1(C)[C@@H](OC(=O)CCC(=O)O)CC[C@]2(C)[C@H]3C(=O)C=C4[C@@H]5C[C@@](C)(C(=O)O)CC[C@]5(C)CC[C@@]4(C)[C@]3(C)CC[C@@H]12 [carbenoxolone] | partially inhibited | 
4 | N.N.[Cl][Pt][Cl] [cisplatin] |  | effect on VRAC (VRAC [2]): activate VRAC
